Measured values reported in PMC11012124, “Synthesis of Novel Triazine-Based Chalcones and 8,9-dihydro-7H-pyrimido[4,5-b][1,4]diazepines as Potential Leads in the Search of Anticancer, Antibacterial and Antifungal Agents” (International Journal of Molecular Sciences, 2024).
Converted amounts (≈) assume the structure as drawn.

Legend:
[1] = tested on: Trichophyton rubrum (CCC 134-2000); experiment: Antifungal broth microdilution (CLSI); type: cell-based; conditions: Tr: Trichophyton rubrum
How it was run: (§1)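 Broth microdilution followed CLSI M27-A3 for yeasts and the filamentous-fungi reference method, in 200 μL final volume with DMSO-matched growth controls. Plates were incubated in the dark and humid at 30 °C for a time suited to each fungus; testing was done in triplicate.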

[2] = tested on: Microsporum gypseum (CCC 115); experiment: Antifungal broth microdilution (CLSI); type: cell-based; conditions: Nannizzia gypsea; Mg: Microsporum gypseum
How it was run: as §1

[3] = tested on: A. fumigatus (ATCC 26934); experiment: Antifungal broth microdilution (CLSI); type: cell-based; conditions: ATCC26934; Afu: Aspergillus fumigatus
How it was run: as §1

A. niger (ATCC 9029) = experiment: Antifungal broth microdilution (CLSI); type: cell-based; conditions: ATCC9029; Ani: Aspergillus niger
How it was run: as §1

[4] = tested on: Candida albicans (ATCC 10231); experiment: Antifungal broth microdilution (CLSI); type: cell-based; conditions: ATCC10231; Ca: Candida albicans
How it was run: as §1

A. flavus (ATCC 9170) = experiment: Antifungal broth microdilution (CLSI); type: cell-based; conditions: ATCC9170; Afl: Aspergillus flavus
How it was run: as §1

[5] = tested on: Cryptococcus neoformans (ATCC 32264); experiment: Antifungal broth microdilution (CLSI); type: cell-based; conditions: ATCC32264; Cn: Cryptococcus neoformans
How it was run: as §1

MOLT-4 = conditions: MOLT-4, 48 h
U251 = conditions: U251, 48 h
LOX IMVI = conditions: 48 h; for GI50: LOX IMVI
Galleria mellonella = experiment: Toxicity in the Galleria mellonella model; conditions: G. mellonella larvae, at the higher doses
Experimental: G mellonella larvae were cultivated in the laboratory and healthy, beige larvae weighing 150–200 mg, were selected for toxicity assays.

SR = conditions: 48 h
S. aureus ATCC 43300 = experiment: Antibacterial MIC, microdilution; type: cell-based; conditions: Staphylococcus aureus; S. aureus ATCC 43300 (MRSA)
K-562 = conditions: K-562, 48 h
SF-539 = conditions: human, 48 h
CCRF-CEM = conditions: 48 h
[6] = tested on: human red blood cells (huRBC); experiment: Hemolytic activity, spectrophotometric; type: cell-based; conditions: 200 μg/mL, 24 h, 37 °C

| Structure (SMILES) | MIC [1] [µg/mL] | MIC [2] [µg/mL] | MIC [3] [µg/mL] | MIC (A. niger (ATCC 9029)) [µg/mL] | MIC [4] [µg/mL] | MIC (A. flavus (ATCC 9170)) [µg/mL] | MIC [5] [µg/mL] | also measured |
| --- | --- | --- | --- | --- | --- | --- | --- | --- |
| CN(C)c1nc(NCCNS(=O)(=O)c2ccc(C(=O)/C=C/c3ccc(Cl)cc3)cc2)nc(N2CCOCC2)n1 [23e] | 125 (≈ 218 µM) | > 250 | > 250 | > 250 | 250 (≈ 437 µM) | > 250 | 250 (≈ 437 µM) |  |
| COc1cc(/C=C/C(=O)c2cc(OC)c(OC)c(OC)c2)ccc1Oc1nc(Nc2ccc(F)cc2)nc(N(C)C)n1 [21d] | 125 (≈ 217 µM) | > 250 | > 250 | 125 (≈ 217 µM) | > 250 | > 250 | > 250 | GI50 (MOLT-4): 470 nM; GI50 (U251): 500 nM; GI50 (LOX IMVI): 480 nM; mortality (Galleria mellonella): ≤ 25% |
| COc1ccc(/C=C/C(=O)c2ccc(S(=O)(=O)NCCNc3nc(Nc4ccc(F)cc4)nc(N(C)C)n3)cc2)cc1 [24c] | 125 (≈ 211 µM) | > 250 | > 250 | > 250 | > 250 | > 250 | > 250 |  |
| COc1cc(/C=C/C(=O)c2cc(OC)c(OC)c(OC)c2)ccc1Oc1nc(NCCO)nc(N2CCOCC2)n1 [20d] |  |  |  |  |  |  |  | GI50 (SR): 780 nM; GI50 (LOX IMVI): 640 nM |
| CN(C)c1nc(NCCNS(=O)(=O)c2ccc(C3=Nc4c(N)nc(N)nc4NC(c4ccc(C(F)(F)F)cc4)C3)cc2)nc(N2CCOCC2)n1 (stereo not shown) [30g] | 250 (≈ 344 µM) | > 250 | > 250 | > 250 | 125 (≈ 172 µM) | > 250 | 125 (≈ 172 µM) | mortality (Galleria mellonella): ≤ 25% |
| COc1cc(/C=C/C(=O)c2ccccc2)ccc1Oc1nc(Nc2ccc(F)cc2)nc(N(C)C)n1 [21a] |  |  |  |  |  |  |  | mortality (Galleria mellonella): ≤ 25% |
| Nc1nc(N)c2c(n1)NC(c1ccc(C(F)(F)F)cc1)CC(c1ccc(Nc3nc(NCCO)nc(Nc4ccc(Cl)cc4)n3)cc1)=N2 (stereo not shown) [33g] |  |  |  |  |  |  |  | GI50 (MOLT-4): 890 nM; MIC (S. aureus ATCC 43300): 31.2 µg/mL (≈ 46.2 µM); GI50 (K-562): 640 nM |
| COc1cc(/C=C/C(=O)c2ccc(S(=O)(=O)NCCNc3nc(Nc4ccc(F)cc4)nc(N(C)C)n3)cc2)cc(OC)c1OC [24d] |  |  |  |  |  |  |  | CC50 (LOX IMVI; human): 5930 nM; CC50 (SF-539): 5620 nM |
| CN(C)c1nc(NCCNS(=O)(=O)c2ccc(C3=Nc4c(N)nc(N)nc4NC(c4ccc(C(F)(F)F)cc4)C3)cc2)nc(Nc2ccc(F)cc2)n1 (stereo not shown) [31g] | 250 (≈ 333 µM) | > 250 | 62.5 (≈ 83.1 µM) | > 250 | > 250 | > 250 | > 250 |  |
| Nc1nc(N)c2c(n1)NC(c1ccc(F)cc1)CC(c1ccc(Nc3nc(NCCO)nc(Nc4ccc(Cl)cc4)n3)cc1)=N2 (stereo not shown) [33f] |  |  |  |  |  |  |  | GI50 (MOLT-4): 530 nM; GI50 (SR): 670 nM; GI50 (CCRF-CEM): 750 nM; GI50 (K-562): 490 nM |
| COc1cc(C2CC(c3ccc(Cl)cc3)=Nc3c(N)nc(N)nc3N2)ccc1Oc1nc(Nc2ccc(F)cc2)nc(N(C)C)n1 (stereo not shown) [29e] | 62.5 (≈ 97.3 µM) | > 250 | > 250 | > 250 | > 250 | > 250 | > 250 |  |
| Cc1ccc(C2CC(c3ccc(Nc4nc(NCCO)nc(Nc5ccc(Cl)cc5)n4)cc3)=Nc3c(N)nc(N)nc3N2)cc1 (stereo not shown) [33b] |  |  |  |  |  |  |  | % Hemolysis [6]: 100% |
| CN(C)c1nc(NCCNS(=O)(=O)c2ccc(C(=O)/C=C/c3ccc(Cl)cc3)cc2)nc(Nc2ccc(F)cc2)n1 [24e] | > 250 | > 250 | > 250 | > 250 | > 250 | > 250 | > 250 |  |
